pIC50: −log10 of the molar value.

By pIC50 is commonly meant −log10 of the IC50, conventionally taken in molar units.

The first experiment concerns the target T1, Human immunodeficiency virus type 1 reverse transcriptase (Human immunodeficiency virus 1, UniProt Q72547). Put plainly: Compound was evaluated for inhibition of HIV-1 reverse transcriptase using rC.dG and [3H]dGTP as substrates at 100 ug/ml.
Molecule `CC(=O)Nc1ccc(NC(=O)CCCCC(=O)Nc2ccc(NC(C)=O)cc2C(=O)O)c(C(=O)O)c1` gave a pIC50 of less than 4.00.

The target of a further experiment is T1, Human immunodeficiency virus type 1 reverse transcriptase. The experiment can be described thus: Evaluated for inhibition of HIV-1 reverse transcriptase; Inactive means <50% inhibition at 100 ug/mL concentration.
As to `O=C(Cc1cccc(CC(=O)Nc2ccc(Br)cc2C(=O)O)c1)Nc1ccc(Br)cc1C(=O)O`, the IC50 entry was “Not Active”.

For `O=C(CCCCC(=O)Nc1ccccc1C(=O)O)Nc1ccc(Br)cc1`, the IC50 result is recorded as “Not Active”.

In the case of `CN(CC(=O)Nc1ccc(Br)cc1C(=O)O)CC(=O)Nc1ccc(Br)cc1C(=O)O`, the IC50 entry is on record as “Not Active”.

Regarding `O=C(CCCCC(=O)Nc1ccccc1C(=O)O)Nc1ccccc1`, the IC50 result was “Not Active”.

As for `O=C(CCCCC(=O)Nc1ccc(Br)cc1)Nc1ccccc1`, the IC50 result is listed as “Not Active”.

On to `O=C(Nc1ccc(Br)cc1C(=O)O)c1cncc(C(=O)Nc2ccc(Br)cc2C(=O)O)c1`, for which the IC50 result was “Not Active”.

Regarding `O=C(Nc1ccc(Br)cc1C(=O)O)c1cccc(C(=O)Nc2ccc(Br)cc2C(=O)O)n1`, the IC50 result is “Not Active”.

With `O=C(CCCCC(=O)Nc1ccc(Br)cc1C(=O)O)Nc1ccccc1`, the IC50 result was “Not Active”.

For `O=C(COCC(=O)Nc1ccc(Br)cc1C(=O)O)Nc1ccc(Br)cc1C(=O)O`, the IC50 result is on record as “Not Active”.

For the next experiment the target is unchanged. The experiment can be described thus: Compound was evaluated for inhibition of HIV-1 reverse transcriptase using rC.dG and [3H]dGTP as substrates at 100 ug/mL.
On to `O=C(CCCCCCC(=O)Nc1ccc(Br)cc1C(=O)O)Nc1ccc(Br)cc1C(=O)O`, for which the pIC50 is 4.74.

A further experiment has the same target. Put plainly: Evaluated for inhibition of HIV-1 reverse transcriptase.
Molecule `O=C(CCCCC(=O)Nc1ccccc1C(=O)O)Nc1ccccc1C(=O)O` gave a negative logarithm of the IC50 (pIC50) of 4.68.

`O=C(CCCC(=O)Nc1ccc(Cl)cc1C(=O)O)Nc1ccc(Cl)cc1C(=O)O` showed a pIC50 of 5.06.

`O=C(CCCCC(=O)Nc1ccc(F)cc1C(=O)O)Nc1ccc(F)cc1C(=O)O` gave a pIC50 of less than 3.92.

For `O=C(Nc1ccc(Br)cc1C(=O)O)c1ccnc(C(=O)Nc2ccc(Br)cc2C(=O)O)c1`, the negative-log IC50 (pIC50) was 4.18.

In turn, `O=C(CCCCCC(=O)Nc1ccc(Cl)cc1C(=O)O)Nc1ccc(Cl)cc1C(=O)O` gave a pIC50 of 5.05.

On to `COc1ccc(NC(=O)CCCCC(=O)Nc2ccc(OC)cc2C(=O)O)c(C(=O)O)c1`, for which the pIC50 is 4.97.

With `O=C(CCCCC(=O)Nc1ccc(Br)cc1C(=O)O)Nc1ccc(Br)cc1`, the pIC50 was 4.82.

As for `O=C(Nc1ccc(Br)cc1C(=O)O)c1ccc(C(=O)Nc2ccc(Br)cc2C(=O)O)nc1`, the pIC50 is 4.46.

As to `O=C(CCCCC(=O)Nc1ccc(Br)cc1C(=O)O)Nc1ccc(Br)cc1C(=O)O`, the pIC50 was 5.51.

The molecule `CSc1ccc(NC(=O)CCCCC(=O)Nc2ccc(SC)cc2C(=O)O)c(C(=O)O)c1` had a pIC50 of 4.72.

In the case of `N#Cc1ccc(NC(=O)CCCCC(=O)Nc2ccc(C#N)cc2C(=O)O)c(C(=O)O)c1`, the pIC50 is less than 4.00.

Consider `Cc1ccc(NC(=O)CCCCC(=O)Nc2ccc(C)cc2C(=O)O)c(C(=O)O)c1`, for which the pIC50 is 4.85.

Regarding `O=C(CCCCC(=O)Nc1ccc(Cl)cc1C(=O)O)Nc1ccc(Cl)cc1C(=O)O`, the pIC50 was 5.06.

Source of the values: ChEMBL document CHEMBL1130588, “Biaryl acids: novel non-nucleoside inhibitors of HIV reverse transcriptase types 1 and 2” (Bioorg Med Chem Lett, 1998).
